Converted amounts (≈) assume the structure as drawn.
Key:
[1] = In vitro dissolution-permeation of aripiprazole forms on μFLUX; assay type: in vitro ADME
Procedure: In the case of buccal drug delivery, the donor chamber represented the oral cavity, the artificial membrane the oral mucosa, while the acceptor chamber represented the blood circulation. At first […] of n-dodecane was dribbled on the membrane surface, then 20 mL of pH 6.8 phosphate buffer was added into the donor chamber, and 20 mL of sink buffer was added into the acceptor chamber. […] Samples equivalent to 20 mg of ARP were placed in the donor chamber. Both chambers were stirred at 200 rpm at room temperature, using stirring devices 87 and 89. The temperature was controlled via elements 91. In both chambers the API concentration was followed by UV-spectrophotometry at 252 nm. Suitable probes for the spectroscopic measurements (not shown in FIG. 12) were introduced through openings 93 and 95.
The flux across the membrane was calculated using the following equation:
[formula] where the flux (J) of a drug through the membrane is defined as the amount (n) of drug crossing a unit area (A) perpendicular to its flow per unit time (t).
The API concentration profiles in the donor and acceptor vessels (1000 mg/L max concentration, 0.025 mol/dm^3 KH2PO4 buffer in the donor compartment, n-dodecane membrane, sink buffer as acceptor, 150 rpm, 25° C.) are presented, respectively, in FIGS. 13A and 13B.

physchem = settings: aqueous buffer
Procedure: In the case of buccal drug delivery, the donor chamber represented the oral cavity, the artificial membrane the oral mucosa, while the acceptor chamber represented the blood circulation. At first 75 mL of n-dodecane was dribbled on the membrane surface, then 20 mL of pH 6.8 phosphate buffer was added into the donor chamber, and 20 mL of sink buffer was added into the acceptor chamber. […] Both chambers were stirred at 200 rpm at room temperature, using stirring devices 87 and 89. The temperature was controlled via elements 91. In both chambers the API concentration was followed by UV-spectrophotometry at 252 nm. Suitable probes for the spectroscopic measurements (not shown in FIG. 12) were introduced through openings 93 and 95.
The in vitro dissolution-absorption studies were carried out using a μFLUX™ (Pion Inc., Billerica Mass., U.S.A.), a schematic diagram of which is shown in FIG. 12. The apparatus included a donor and an acceptor chamber (20 mL volume) separated by an artificial membrane (PVDF, polyvinylidenefluoride, 0.45 μm, 1.54 cm^2). In the case of oral drug delivery, the donor chamber represents the gastrointestinal tract, while the acceptor chamber represents the blood circulation. […]

[2] = Permeability in concentric nested donor/receiver arrangement with PAMPA membrane; assay type: in vitro ADME; settings: in situ UV fiber optic, read-out: Peff (effective permeability coefficient)
Procedure: A concentric nested arrangement was used to study permeability of several compounds. The membrane was a PAMPA membrane and experiments were performed with and without Acceptor Sink Buffer™ on the acceptor sink side. Concentrations measurements were taken using in situ UV fiber optic system Pion Spectra™.

Row | API dissolved during the biorelevant time ([1]; 30-60 min, donor chamber) | flux during the first 25 min ([1]; n-dodecane membrane, sink buffer acceptor) | solubility (physchem) | Compound | Papp [2]
1 | 1.5% | 16 μg/h×cm^2 | 30 µg/mL (≈ 66.9 µM) | O=C1CCc2ccc(OCCCCN3CCN(c4cccc(Cl)c4Cl)CC3)cc2N1 [ARP, aripiprazole] | 
2 |  |  |  | CC(=O)Oc1ccccc1C(=O)O [Aspirin] | 331 ×10⁻⁶ cm/s
3 |  |  |  | Cn1c(=O)c2c(ncn2C)n(C)c1=O [Caffeine] | 257 ×10⁻⁶ cm/s
